In brackets after ≈: the same amount, converted by molar mass. Read-outs that look alike come from different tables or passages of the source.
What was measured:
[1] = tested on: Hela S3 cultured cells; assay: Effects upon Hela S3 cultured cells; assay type: cell-based; conditions: Homo sapiens
Description: Table 3 indicates the effects of typical Compounds (I) against Hela S3 culture cells. In this table, IC50 denotes the concentration of the test compound capable of reducing the number of cells to 50% the number of untreated cells.
Cultured cells of Hela S3 were added to a MEM medium containing 10% (V/V) of bovine fetal serum and […] of glutamine to obtain a cell suspension of 3×10^4 cells/ml. The cell suspension was poured into each well (1 ml/well) of a 24 well-multiplate for culturing at 37° C. in an incubator containing carbon dioxide (5%) and air (95%). After 24 hours, samples were dissolved or suspended in PBS, ethanol or dimethylsulfoxide and added to the medium at different concentrations, followed by culturing at 37° C. for 72 hours in the same incubator. An aspirator was used to collect the medium from each well. The surface of each medium was washed by adding PBS (1 ml) gently, and then PBS was sucked out. PBS containing trypsin (0.05%) and EDTA (0.02%) was poured into each well. After pipetting, the number of cells in each suspension was counted by the use of a microcell counter (commercial product of Toa Iyo Denshi K.K., Japan). By reference to a curve showing the concentration vs. the number of cells, the IC50 (concentration of sample capable of reducing the number of cells to 50% of the number of control untreated cells) was measured.

[2] = in vivo; conditions: mouse, ip, single abdominal administration, ddy mice, 14 days, Behrens-Korber's method
Excerpt: (§1) In this table, C.I. denotes chemotherapeutic index, calculated as C.I.=(LD50)/(ED50), wherein LD50 denotes the value of acute toxicity, and ED50 denotes the dose of a sample which is capable of reducing the volume of Sarcoma 180 solid tumour to 50% of the corresponding volume of the solid tumour of untreated group.
(§2) The test compound was abdominally administered once to ddy mice, each group consisting of 5 animals.

[3] = tested on: Sarcoma 180 solid tumour; assay type: in vivo, ddy mouse; conditions: C.I.=(LD50)/(ED50), ED50 = dose at T/C=0.5, i.v. (tail vein), 7 days
Excerpt: as §1, §2
(§3) 5×10^6 cells of Sarcoma 180 solid tumour were abdominally implanted into a ddy mouse. 7 days after this, the cells were collected from the ascites fluid. The cells were washed once with physiological saline under sterile conditions and suspended in physiological saline to obtain a cell suspension containing 5×10^7 cells/ml of which 0.1 ml was implanted into a ddy male mouse (body weight 20±2 g) under the skin of the right armpit. The test compound was dissolved in physiological saline or the same solution containing Tween 80. 24 hours after implantation of the tumour cells, 0.1-0.2 ml of the solution containing the test compound was administered to the tail vein of each animal in the test group consisting of 5 animals. 7 days after the implantation, the major axis (a) and minor axis (b) of the tumour were measured to calculate the volume of the tumour as "a"×"b^2 "/2. The antitumour effect was indicated by T/C which is the ratio of the tumour volume in the test animals to the corresponding volume of the control (untreated) animals.
(§4) T/C ratios and the dose were respectively plotted on the ordinate using an arithmetic scale and on the abscissa using a logarithmic scale, the relationship between the dosage and the T/C ratio being converted to a straight line by the least squares method. From the straight tropic line thus-obtained, the dosage corresponding to a T/C=0.5 viz. ED50 was determined.

[4] = in vivo; set-up: species or system mice (ddy strain); conditions: mouse, ip, ratio of dose reducing peripheral leucocytes to 4000 (per mm^3; i.p., 4 days) to ED50 (Sarcoma 180), read-out: (WBC4000)/(ED50)
Excerpt: as §1, §3, §4
Sarcoma 180 solid tumour cells (5×10^6) were subcutaneously implanted under the skin of the right armpit of each mouse (body weight 20±2 g) of a group consisting of 5 male mice (ddy strain). 24 hours after this, a test compound was intraperitoneally administered to each animal. 4 days later, blood (0.02 ml) was collected from the suborbital plexus vein of each tumour-carrying animal. The collected sample of blood was dispersed in 9.98 ml of Cellkit Seven solution. One drop of saponin solution was added to the sample to dissolve erythrocytes and then a microcell counter was used to measure the number of leucocytes. On graph paper, the number of leucocytes was plotted on the ordinate using an arithmetic scale, and the dosage was plotted on the abscissa using a logarithmic scale to show the relationship of the dosage to the number of peripheral leucocytes, from which the value of WBC4000 viz. a value capable of giving 4000 peripheral leucocytes per mm^3 (about half of the corresponding value in normal mice) was obtained.

[5] = concentration reducing number of Hela S3 cells to 50% of untreated, 72 hours at 37° C., read-out: IC50

Compound | IC50 ([1]; HeLa S3, 72 h) | LD50 at 336 h [2] | C.I. (chemotherapeutic index) [3] | selectivity ratio [4] | IC50 [1, 5]
CO[C@@]12[C@H](COC(N)=O)c3c(O)c(N=NC(=O)c4ccccc4)c(C)c(O)c3N1C[C@@H]1N[C@@H]12 [Example 17, [1aS-(1aα,8β,8aα,8bα)]-8-{[(aminocarbonyl)oxy]methyl}-6-[(benzoyl)azo-]-4,7-dihydroxy-1,1a,2,8,8a,8b-hexahydro-8a-methoxy-5-methyl-azirino-[2',3':3,4]pyrrolo[1,2-a]indole] | 14.9 µg/mL (≈ 32.9 µM) | – | – | – | –
CO[C@@]12[C@H](COC(N)=O)c3c(O)c(N=O)c(C)c(OCC(C)C)c3N1C[C@@H]1N[C@@H]12 [Example 13, [1aS-(1aα, 8β, 8aα, 8bα)]-8-{[(aminocarbonyl)oxy]methyl}-1,1a,2,8,8a,8b-hexahydro-7-hydroxy-4-isobutyloxy-8a-methoxy-5-methyl-6-nitroso-azirino[2',3':3,4]pyrrolo[1,2-a]indole] | – | > 100 mg/kg | > 0.74 | > 0.74 | –
CO[C@@]12[C@H](COC(N)=O)c3c(O)c(N=O)c(C)c(OS(=O)(=O)c4ccc(C)cc4)c3N1C[C@@H]1N[C@@H]12 [Example 15, [1aS-(1aα,8β,8aα,8bα)]-8-{[(aminocarbonyl)oxy]methyl}-1,1a,2,8,8a,8b-hexahydro-7-hydroxy-8a-methoxy-5-methyl-6-nitroso-4-[(p-toluenesuIfonyl)oxy]azirino[2',3':3,4]pyrrolo[1,2-a]indole] | 0.027 µg/mL (≈ 0.0535 µM) | 56 mg/kg | 2.6 | 3.9 | –
COc1c(C)c(N=O)c(O)c2c1N1C[C@@H]3N[C@@H]3[C@]1(OC)[C@@H]2COC(N)=O [Example 6] | 0.005 µg/mL (≈ 0.0137 µM) | 75 mg/kg | 5.6 | 2.7 | –
CO[C@@]12[C@H](COC(N)=O)C3=C(C(=O)C(C)=C(N)C3=O)N1C[C@@H]1N[C@@H]12 [mitomycin C, reference compound] | – | – | – | – | 0.004 µg/mL (≈ 0.012 µM)
CO[C@@]12[C@H](COC(N)=O)c3c(O)c(N=NC(C)=O)c(C)c(O)c3N1C[C@@H]1N[C@@H]12 [Example 18, [1aS-(1aα,8β,8aα,8bα)]-6-[(acetyl)azo]-8-{[(aminocarbonyl)oxy]methyl}-4,7-dihydroxy-1,1a,2,8,8a,8b-hexahydro-8a-methoxy-5-methyl-azirino[2',3':3,4]pyrrolo[1,2-a]indole] | 0.54 µg/mL (≈ 1.38 µM) | – | – | – | –
CO[C@@]12[C@H](COC(N)=O)c3c(O)c(N=O)c(C)c(OC(C)=O)c3N1C[C@H]1[C@@H]2N1C(C)=O [Example 11, [1aS-(1aα, 8β, 8aα, 8bα)]-1-acetyl-4-acetyloxy-8-{[(aminocarbonyl)oxy]methyl}-1,1a,2,8,8a,8b-hexahydro-7-hydroxy-8a-methoxy-5-methyl-6-nitroso-azirino[2',3':3,4]pyrrolo[1,2-a]indole] | – | 38 mg/kg | 2.0 | 0.9 | 0.02 µg/mL (≈ 0.046 µM)
COc1c(C)c(N=O)c(O)c2c1N1C[C@@H]3N[C@@H]3[C@]1(OC)[C@@H]2CO [Example 9, [1aS-(1aα, 8β, 8aα, 8bα)]-4,8a-dimethoxy-1,1a,2,8,8a,8b-hexahydro-7-hydroxy-8-hydroxymethyl-5-methyl-6-nitroso-azirino[2',3':3,4]pyrrolo [1,2-a]indole] | 0.005 µg/mL (≈ 0.0156 µM) | – | – | – | –
CO[C@@]12[C@H](CO)c3c(O)c(N=O)c(C)c(O)c3N1C[C@@H]1N[C@@H]12 [Example 4, [1aS-(1aα, 8β, 8aα, 8bα)]-4,7-dihydroxy-1,1a,2,8,8a,8b-hexahydro-8-hydroxymethyl-8a-methoxy-5-methyl-6-nitroso-azirino [2',3':3,4]pyrrolo[1,2-a]indole] | – | 100 mg/kg | 2.8 | > 1.4 | –
COC(=O)N=Nc1c(C)c(O)c2c(c1O)[C@@H](COC(N)=O)[C@@]1(OC)[C@H]3N[C@H]3CN21 [Example 24] | 0.012 µg/mL (≈ 0.0295 µM) | > 100 mg/kg | – | – | –
CO[C@@]12[C@H](COC(N)=O)c3c(O)c(N=NC(N)=O)c(C)c(O)c3N1C[C@@H]1N[C@@H]12 [Example 25] | 0.003 µg/mL (≈ 0.00765 µM) | – | – | – | –
CO[C@@]12[C@H](COC(N)=O)c3c(O)c(N=NC(=S)SC)c(C)c(O)c3N1C[C@@H]1N[C@@H]12 [Example 31] | – | 50 mg/kg | 2.5 | 1.1 | –
CO[C@@]12[C@H](COC(N)=O)c3c(O)c(N=O)c(C)c(O)c3N1C[C@@H]1N[C@@H]12 [Example 1, [1aS-(1aα,8β,8aα,8bα)]-8-{[(aminocarbonyl)oxy]methyl}-4,7-dihydroxy-1,1a,2,8,8a,8b-hexahydro-8a-methoxy-5-methyl-6-nitroso-azirino[2',3':3,4]pyrrolo[1,2-a]indole] | 1.14 µg/mL (≈ 3.24 µM) | 53 mg/kg | 2.0 | 0.7 | –
CO[C@@]12[C@H](COC(N)=O)c3c(O)c(N=NC4=NCCN4)c(C)c(O)c3N1C[C@@H]1N[C@@H]12 [Example 23, [1aS-(1aα,8β, 8aα,8bα)]-8-{[(aminocarbonyl)oxy]methyl}-4,7-dihydroxy-1,1a,2,8,8a,8b-hexahydro-6[(2"- imidazolinyl)azo]-8a-methoxy-5-methyl-azirino[2',3':3,4]pyrrolo[1,2-a]indol] | 0.162 µg/mL (≈ 0.388 µM) | > 100 mg/kg | > 0.6 | 0.5 | –
COc1c(C)c(N=O)c(O)c2c1N1C[C@H]3[C@H](N3C)[C@]1(O)[C@H]2COC(N)=O (some centres unmarked) [Example 10] | 0.004 µg/mL (≈ 0.011 µM) | > 100 mg/kg | > 0.56 | > 0.56 | –
CO[C@@]12[C@H](COC(N)=O)c3c(O)c(N=NC(=O)c4ccccc4)c(C)c(O)c3N1C[C@H]1[C@@H]2N1C (stereo partly drawn) [Example 21, [1aS-(1aα,8β,8aα,8bα)]-8-{[(aminocarbonyl)oxy]methyl}-6-[(benzoyl)azo]-4,7-dihydroxy-1,5-dimethyl-1,1a,2,8,8a,8b-hexahydro-8a-methoxy-azirino[2',3':3,4]pyrrolo[1,2-a]indole] | 0.75 µg/mL (≈ 1.6 µM) | > 100 mg/kg | > 1.0 | 0.62 | –
CO[C@@]12[C@H](CO)c3c(O)c(N=NC(=O)c4ccccc4)c(C)c(O)c3N1C[C@H]1[C@@H]2N1C (stereo partly drawn) [Example 22, [1aS-(1aα,8β,8aα,8bα)]-6-[(benzoyl)azo]-4,7-dihydroxy-1,5-dimethyl-1,1a,2,8,8a,8b-hexahydro-8-hydroxymethyl-8a-methoxy-azirino-[2',3':3,4[pyrrolo]1,2-a]indole] | 0.131 µg/mL (≈ 0.309 µM) | – | – | – | –
CO[C@@]12[C@H](COC(N)=O)c3c(O)c(N=NC(=O)c4ccccc4O)c(C)c(O)c3N1C[C@@H]1N[C@@H]12 [Example 28, [1aS-(1aα,8β,8aα,8bα)]-8-{[(aminocarbonyl)oxy]methyl}-4,7-dihydroxy-1,1a,2,8,8a,8b-hexahydro-6-[(2"-hydroxybenzoyl)azo]-8a-methoxy-5-methyl-azirino [2',3':3,4]pyrrolo[1,2-a]indole] | 0.08 µg/mL (≈ 0.17 µM) | – | – | – | –
COc1c(C)c(N=O)c(O)c2c1N1C[C@H]3[C@H](N3C)[C@]1(OC)[C@@H]2COC(N)=O (stereo partly drawn) [Example 7, [1aS-(1aα, 8α, 8aα, 8bα)]-8-{[(aminocarbonyl)oxy]methyl}-4,8a-dimethoxy-1,5-dimethyl-1,1a,2,8,8a,8b-hexahydro-7-hydroxy-6-nitroso-azirino-[2',3':3,4]-pyrrolo[1,2-a]indole] | 0.013 µg/mL (≈ 0.0344 µM) | – | – | – | –
